PubChem BioAssay AID1552 (Sanford-Burnham Center for Chemical Genomics, 2009)
Activity calls are given as the source filed them. The rule behind the calls is not given here.

What follows are compounds tested against Ubiquitin-conjugating enzyme E2 N (Homo sapiens) (UniProt P61088) (assay: UBE2N binders by NMR, biophysical, purified protein (AID 1552)). Conditions: NMR binding to purified UBE2N.
Chain of Ubiquitin-conjugating enzyme E2 N (Homo sapiens) (P61088 whole entry, looked up): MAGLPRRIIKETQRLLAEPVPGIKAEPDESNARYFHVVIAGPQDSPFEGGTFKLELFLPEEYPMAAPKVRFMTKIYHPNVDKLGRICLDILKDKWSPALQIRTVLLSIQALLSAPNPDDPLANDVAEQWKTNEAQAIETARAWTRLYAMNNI
With OC[C@H]1O[C@@H](O[C@H]2[C@H](O)[C@@H](O)[C@@H](O)O[C@@H]2CO)[C@H](O)[C@@H](O)[C@@H]1O the Kd was > 4 mM (inactive). In the case of CN(C)C(=S)Nc1ccc([N+](=O)[O-])cc1, the Kd is reported as > 4 mM (inactive). In the case of CC(=O)OC/C=C(\C)CC/C=C(\C)CC/C=C(\C)CC/C=C(\C)CC/C=C(\C)CC/C=C(\C)CC/C=C(\C)CC/C=C(\C)CCC=C(C)C, the Kd is reported as > 4 mM (inactive). O=S1(=O)C=C(Nc2ccccc2)CC1 was tested, and the Kd was > 4 mM (inactive). Nc1nnc(Cc2ccc(Cl)cc2)s1 was tested, and the Kd was > 4 mM (inactive). For NC(=O)COc1ccccc1O, the Kd was > 4 mM (inactive). With O=c1cnnc(N2CCCCC2)[nH]1 the Kd was > 4 mM (inactive). CN(C)c1nc(N)nc(Cn2ccnc2)n1 was tested, and the Kd was > 4 mM (inactive). In the case of C[n+]1cc2c3c(ccc2c2ccc4cc5c(cc4c21)OCO5)OCO3, the Kd is reported as > 4 mM (inactive). With CN(C)c1ccc(N2C(=O)CCC2=O)cc1 the Kd was > 4 mM (inactive). For Cc1scc(C(=O)Nn2cnnc2)c1-c1ccccc1, the Kd was > 4 mM (inactive). CC(=O)Nc1nc(C)nc(-c2ccccc2)c1C(C)=O was tested, and the Kd was > 4 mM (inactive). O=C(NC1=NCCS1)c1csc2ccccc12 was tested, and the Kd was > 4 mM (inactive). NCc1ccc(-n2cccc2)cc1 was tested, and the Kd was > 4 mM (inactive). For Nc1nc(NCc2ccco2)nn1-c1ccccc1, the Kd was > 4 mM (inactive). In the case of Cc1ccc(NC(=O)CC2NCCNC2=O)c(C)c1 (stereo unspecified), the Kd is reported as > 4 mM (inactive). In the case of Cc1nc2sc3c(c2c(=N)n1N)CC(C)(C)OC3, the Kd is reported as > 4 mM (inactive). CC1=CC(C)C(C(=O)O)C(C(=O)N2CCN(C)CC2)C1 (stereo unspecified) was tested, and the Kd was > 4 mM (inactive). In the case of Nc1nc(O)c(C2=c3cc(Cl)ccc3=NC2=O)s1, the Kd is reported as > 4 mM (inactive). In the case of CN1CCN(S(=O)(=O)c2ccc(=O)[nH]c2)CC1, the Kd is reported as > 4 mM (inactive). CCSc1nnc2[nH]c(=O)cc(C)n12 was tested, and the Kd was > 4 mM (inactive). O=P(O)(Cc1ccccc1)c1ccccc1 was tested, and the Kd was > 4 mM (inactive). In the case of COc1c2ccoc2nc2c(OC)c(OCC(O)C(C)(C)O)ccc12 (stereo unspecified), the Kd is reported as > 4 mM (inactive). For O=C(Nc1ccncc1)c1c(F)cccc1F, the Kd was > 4 mM (inactive). In the case of Cn1c(=O)n(CC(=O)N2CCOCC2)c2ccccc21, the Kd is reported as > 4 mM (inactive). O=C(CSc1ccccc1)N1CCC2(CC1)OCCO2 was tested, and the Kd was > 4 mM (inactive). For CCSc1nc(N)c(NC(=O)c2ccco2)c(=O)[nH]1, the Kd was > 4 mM (inactive). With NC(=O)c1ccc(-c2ccccn2)s1 the Kd was > 4 mM (inactive). For C=CCCCCCCCCCCCc1ccco1, the Kd was > 4 mM (inactive). Cc1ccc(SCc2nc(-c3ccncc3)no2)cc1 was tested, and the Kd was > 4 mM (inactive). CC(=O)c1c(C)nn(CC(=O)O)c1C was tested, and the Kd was > 4 mM (inactive). In the case of COC(=O)C[C@H]1C(C)(C)C(=O)[C@@H]2CC3=C4CC(=O)O[C@@H](c5ccoc5)[C@]4(C)CCC3C1(C)C2=O (stereo partly specified), the Kd is reported as > 4 mM (inactive). CC(C)(C(N)=O)/[N+]([O-])=C\c1ccccc1 was tested, and the Kd was > 4 mM (inactive). In the case of CCc1ccccc1NC(=O)c1ccoc1C, the Kd is reported as > 4 mM (inactive). For Cc1n[nH]c(=O)nc1N1CCN(c2ccccc2)CC1, the Kd was > 4 mM (inactive). With CCOCC(=O)NCc1n[nH]c(=O)c2ccccc12 the Kd was > 4 mM (inactive). CCSc1n[nH]c(=O)[nH]c1=O was tested, and the Kd was > 4 mM (inactive). In the case of c1ccc(SCc2nc(-c3ccncc3)no2)cc1, the Kd is reported as > 4 mM (inactive). In the case of Nc1cc(=O)[nH]c(SCC(=O)NC2CCCCC2)n1, the Kd is reported as > 4 mM (inactive). In the case of OCc1ccc(-n2ccnc2)cc1, the Kd is reported as > 4 mM (inactive). Fc1ccc(F)c(CN2CCN(c3ncccn3)CC2)c1 was tested, and the Kd was > 4 mM (inactive). With COC(=O)c1noc(C)c1C(C)=O the Kd was > 4 mM (inactive). With CC(C)C(=O)NC(=S)N1CCOCC1 the Kd was > 4 mM (inactive). With Nc1nncn1C(=O)c1ccccc1Cl the Kd was > 4 mM (inactive). For O=C1c2cccc3cc(S(=O)(=O)O)cc(c23)C(=O)N1O, the Kd was > 4 mM (inactive). In the case of O=C(Nc1ccccc1Cl)c1cnccn1, the Kd is reported as > 4 mM (inactive). With O=C(Nc1cccc2ncccc12)c1cccnc1 the Kd was > 4 mM (inactive). Cn1c(NCc2ccccc2O)nc2ccccc21 was tested, and the Kd was > 4 mM (inactive). In the case of NC(=S)NC1CCS(=O)(=O)C1 (stereo unspecified), the Kd is reported as > 4 mM (inactive). With COc1ccc(-c2oc3c(CC=C(C)C)c(O[C@@H]4O[C@H](CO)[C@@H](O)[C@H](O)[C@H]4O)cc(O)c3c(=O)c2O[C@@H]2O[C@@H](C)[C@H](O)[C@@H](O)[C@H]2O)cc1 the Kd was > 4 mM (inactive). For Cc1nc2ccccc2c(=O)[nH]1, the Kd was > 4 mM (inactive). NC(=O)c1ccc(NC(=O)C2CC2)cc1 was tested, and the Kd was > 4 mM (inactive). In the case of Cn1c(=O)c2c(ncn2CCN)n(C)c1=O, the Kd is reported as > 4 mM (inactive). In the case of c1ccc2[nH]c(-c3cscn3)nc2c1, the Kd is reported as > 4 mM (inactive). For Cc1ccsc1/C=c1\sc2ncnn2c1=O, the Kd was > 4 mM (inactive). With O=[N+]([O-])c1ccc2c(c1)N([O-])C1(CCCCC1)[N+]2=O the Kd was > 4 mM (inactive). For Cc1cc(C)c2ccc[n+]([O-])c2c1O, the Kd was > 4 mM (inactive). O=C(O)CCC(=O)NCc1cccnc1 was tested, and the Kd was > 4 mM (inactive). For O=S(=O)(Nc1ccc2c(c1)OCCO2)c1cccs1, the Kd was > 4 mM (inactive). With N[C@@H](CCC(=O)N[C@@H](CS)C(=O)NCC(=O)O)C(=O)O the Kd was > 4 mM (inactive). In the case of C[C@H]1O[C@@H](O[C@H]2[C@@H](O)C[C@H](O[C@H]3[C@@H](O)C[C@H](O[C@H]4CC[C@]5(C)C6C[C@@H](O)[C@]7(C)[C@@H](C8=CC(=O)OC8)CC[C@]7(O)C6CC[C@@H]5C4)O[C@@H]3C)O[C@@H]2C)C[C@H](O)[C@@H]1O (stereo partly specified), the Kd is reported as > 4 mM (inactive). In the case of Cc1ccc(-c2nc(N)n(C(=O)c3cccnc3)n2)cc1, the Kd is reported as > 4 mM (inactive). In the case of O=S(=O)(N1CCOCC1)n1nnc2ccccc21, the Kd is reported as > 4 mM (inactive). In the case of O=C(c1ccncc1)N1CCN(C(=O)c2ccco2)CC1, the Kd is reported as > 4 mM (inactive). With Cn1nnc2cc(CN)ccc21 the Kd was > 4 mM (inactive). With NC(=O)NC1NC(=O)NC1=O (stereo unspecified) the Kd was > 4 mM (inactive). CCN1CCn2c1nc(N1CCOCC1)nc2=O was tested, and the Kd was > 4 mM (inactive). With O=c1[nH]c2sc3c(c2c2ncnn12)CCCC3 the Kd was > 4 mM (inactive). With OCc1ccc(-n2cccn2)cc1 the Kd was > 4 mM (inactive). With COc1cc(C)nc(N(CCO)CCO)n1 the Kd was > 4 mM (inactive). For Cc1cc(C)nc(/N=C(/N)N2CCN(C)CC2)n1, the Kd was > 4 mM (inactive). For COC(=O)C1CCc2ccccc2N1 (stereo unspecified), the Kd was > 4 mM (inactive). With OCc1ccc(-c2ccccn2)s1 the Kd was > 4 mM (inactive). With Nc1cccc2nsnc12 the Kd was > 4 mM (inactive). For COCc1c(CN)cnc(C)c1N, the Kd was > 4 mM (inactive). With CCOC(=O)c1snnc1-c1ccccc1 the Kd was > 4 mM (inactive). With COc1ccc(S(N)(=O)=O)cc1 the Kd was > 4 mM (inactive). In the case of O=C(c1ccccc1F)N1CCN(c2ccccc2)CC1, the Kd is reported as > 4 mM (inactive). In the case of CC(=O)c1csc(-c2cc(C)on2)n1, the Kd is reported as > 4 mM (inactive). With NS(=O)(=O)c1ccc(NC(=O)/C=C\C(=O)O)cc1 the Kd was > 4 mM (inactive). With c1ccc(SCc2nc(-c3ccccn3)no2)cc1 the Kd was > 4 mM (inactive). CC(=O)NC(=S)Nc1ccc(N(C)C(C)=O)cc1 was tested, and the Kd was > 4 mM (inactive). With Cn1[nH]c(C(F)(F)F)cc1=O the Kd was > 4 mM (inactive). COC(=O)C1CCN(c2ccc(Cl)nn2)CC1 was tested, and the Kd was > 4 mM (inactive). With O=c1/c(=C/c2cccs2)sc2ncnn12 the Kd was > 4 mM (inactive). In the case of NC(=O)c1ccccc1N1CCCCC1, the Kd is reported as > 4 mM (inactive). With CCOc1cc(C)c(Cl)cc1S(=O)(=O)N(C)C the Kd was > 4 mM (inactive). In the case of CC(=O)Nc1nnc(-c2ccccc2S(C)(=O)=O)o1, the Kd is reported as > 4 mM (inactive). With O=C(O)Cn1c(C(F)(F)F)nc2ccccc21 the Kd was > 4 mM (inactive). For Cn1cnnc1SCC(=O)Nc1ccccc1, the Kd was > 4 mM (inactive). In the case of Cc1nn2c(-c3ccco3)nnc2c2ccccc12, the Kd is reported as > 4 mM (inactive). With COc1ccc(-c2cc(=O)c3ccccc3o2)cc1 the Kd was > 4 mM (inactive). COc1ccc(C(N)=O)cc1N was tested, and the Kd was > 4 mM (inactive). With CC(=O)O[C@@H]1CC2C(C)(C)C(=O)C=C[C@]2(C)C2CC[C@]3(C)C(=CC(=O)O[C@H]3c3ccoc3)[C@@]21C (stereo partly specified) the Kd was > 4 mM (inactive). For C=CC1=C(C)/C(=C/c2[nH]c(Cc3[nH]c(/C=C4\NC(=O)C(C)=C4C=C)c(C)c3CCC(=O)O)c(CCC(=O)O)c2C)NC1=O, the Kd was > 4 mM (inactive). With Cc1ccccc1NC(=O)C1CCC(=O)N1 (stereo unspecified) the Kd was > 4 mM (inactive). For C=C(C)C1CC=C(CO)CC1 (stereo unspecified), the Kd was > 4 mM (inactive). For Nc1cccc(NC(=O)c2ccco2)c1, the Kd was > 4 mM (inactive). In the case of CC1(NC(=O)NCc2ccccc2)CCS(=O)(=O)C1 (stereo unspecified), the Kd is reported as > 4 mM (inactive). In the case of C/C(=C\CO)CC[C@H](C)CCC[C@H](C)CCCC(C)C, the Kd is reported as > 4 mM (inactive). For O=C1CSC2(CN3CCC2CC3)N1 (stereo unspecified), the Kd was > 4 mM (inactive). COC(=O)Nc1ccc2ncn(C)c(=O)c2c1 was tested, and the Kd was > 4 mM (inactive). With CC(C)=CC(=O)Nc1ccc(S(N)(=O)=O)cc1 the Kd was > 4 mM (inactive). CNC(=O)C1=NCCCc2cc(OC)c(OC)cc21 was tested, and the Kd was > 4 mM (inactive). With Cc1ccccc1NC(=O)c1ocnc1C the Kd was > 4 mM (inactive). In the case of O=C(Cc1c(F)cccc1Cl)Nc1ccon1, the Kd is reported as > 4 mM (inactive). With O=C(c1ccccc1)N1CCNCC1 the Kd was > 4 mM (inactive). CC1=NCCc2c1[nH]c1cc(O)ccc21 was tested, and the Kd was > 4 mM (inactive). O=C1C=C(O)c2ccccc2C1=O was tested, and the Kd was > 4 mM (inactive). With OC(CCl)c1ccc(-n2cncn2)cc1 (stereo unspecified) the Kd was > 4 mM (inactive). CC1(C)C2CC[C@]3(C)C(C(=O)C=C4[C@@H]5C[C@@](C)(C(=O)O)CC[C@]5(C)CC[C@]43C)[C@@]2(C)CC[C@@H]1O (stereo partly specified) was tested, and the Kd was > 4 mM (inactive). CC1(C)C=CC(=O)[C@@]2(C)C1CC(=O)[C@]1(C)C2CC[C@@]2(C)[C@H](c3ccoc3)OC(=O)C3OC321 (stereo partly specified) was tested, and the Kd was > 4 mM (inactive). O=C(Nn1cnnc1)c1csc2ccccc12 was tested, and the Kd was > 4 mM (inactive). For COC(=O)c1ccccc1N(C)S(C)(=O)=O, the Kd was > 4 mM (inactive). With Cc1cc(O)cc(O)c1C(=O)O the Kd was > 4 mM (inactive). In the case of Clc1ccc2c(N3CCNCC3)ccnc2c1, the Kd is reported as > 4 mM (inactive).
